Literature values as cited in patent US8454566B2, “Methods and compositions for the inhibition of biofilms on medical devices” (Medtronic MiniMed, Inc., priority 2003, dated 2013).

Molecular target: avidin (Gallus gallus, UniProt P02701)
Details: avidin tetramer binds 4 biotin molecules in solution, noncovalent interaction

Sequence of avidin (P02701 25-152): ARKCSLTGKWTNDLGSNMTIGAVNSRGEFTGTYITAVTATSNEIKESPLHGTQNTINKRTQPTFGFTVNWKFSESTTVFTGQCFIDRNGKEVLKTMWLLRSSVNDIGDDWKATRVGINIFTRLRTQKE

Q: With `O=C(O)CCCC[C@@H]1SC[C@@H]2NC(=O)N[C@@H]21` [biotin] as the molecule, how does the binding constant read?
A: about 10^15 M^−1
